Data as given in patent publication US10829538B2, “Identification of immunogenic MHC class II peptides for immune-based therapy” (THE TRUSTEES OF THE UNIVERSITY OF PENNSYLVANIA, priority 2015, dated 2020).

Columns and labels:
[1] = system: HLA-DR, DP, DQ; assay: MHC class II promiscuity of CD4+ Th1 responses (HLA-DR, DP, DQ typing of donors); format: cell-based, human; conditions: DQ subtypes
[2] = system: HER3 ECD-sensitized CD4+ Th1 cells; assay: Sequential screening of HER3 ECD peptide library: HER3 ECD-sensitized CD4+ Th1 restimulated against peptide-pulsed iDCs, IFN-γ ELISA; format: cell-based, human; conditions: for reactivity of CD4+ T cells across donors (IFN-γ secretion): 5-6 subjects with known anti-HER3 ECD reactivity
[3] = Donor # 15107-24, previously sensitized to HER3 ECD
[4] = Donor # 15107-26, previously sensitized to HER3 ECD
[5] = Donor # 15107-38, previously sensitized to HER3 ECD
[6] = Donor # 26113-03, previously sensitized to HER3 ECD
[7] = Donor # 15107-31, previously sensitized to HER3 ECD

Sequence	MHC class II promiscuity [1]	reactivity of CD4+ T cells across donors (IFN-γ secretion) [2]	reactivity of CD4+ T cells across donors (IFN-γ secretion) ([2]; listed as HER3(56-70))	immunogenic CD4+ HER3 ECD peptide identified [2, 3]	immunogenic CD4+ HER3 ECD peptide identified [2, 4]	immunogenic CD4+ HER3 ECD peptide identified [2, 5]	immunogenic CD4+ HER3 ECD peptide identified [2, 6]	reactivity of CD4+ T cells across donors (IFN-γ secretion) ([2]; listed as HER3(416-430))	immunogenic CD4+ HER3 ECD peptide identified [2, 7]	reactivity of CD4+ T cells across donors (IFN-γ secretion) ([2]; listed as HER3(401-415))	reactivity of CD4+ T cells across donors (IFN-γ secretion) ([2]; listed as HER3(451-465))
CEVVMGNLEIVLTGH [HER356-70, HER3 ECD MHC class II immunogenic peptide, positions 56-70]	promiscuous across HLA-DR, DP, and DQ subtypes	react across most donors	reproducibly identified	✓	✓	✓	✓	–	–	–	–
TTIGGRSLYNRGFSL [HER3416-430, HER3 ECD MHC class II immunogenic peptide, positions 416-430]	promiscuous across HLA-DR, DP, and DQ subtypes	react across most donors	–	✓	✓	–	✓	reproducibly identified	✓	–	–
SWPPHMHNFSVFSNL [HER3401-415, HER3 ECD MHC class II immunogenic peptide, positions 401-415]	promiscuous across HLA-DR, DP, and DQ subtypes	react across most donors	–	✓	✓	–	✓	–	–	reproducibly identified	–
AGRIYISANRQLCYH [HER3451-465, HER3 ECD MHC class II immunogenic peptide, positions 451-465]	promiscuous across HLA-DR, DP, and DQ subtypes	react across most donors	–	–	✓	✓	✓	–	✓	–	reproducibly identified
